The values that follow are results of earlier work, collected in patent US9622976B2, “Pharmaceutical composition” (LEK PHARMACEUTICALS D.D., priority 2006, dated 2017).

The conditions of the data set: pH 6.8 phosphate buffer.

As to `CCCc1nc2c(C)cc(-c3nc4ccccc4n3C)cc2n1Cc1ccc(-c2ccccc2C(=O)O)cc1` [Telmisartan, 2-[4-[[4-methyl-6-(1-methylbenzoimidazol-2-yl)-2-propyl-benzoimidazol-1-yl]methyl]phenyl]benzoic acid], the solubility is given as at most 2 μg per ml.
